From patent publication US20250269018A1, “COMBINED CANCER THERAPY WITH AN EPITHELIAL CELL ADHESION MOLECULE (EPCAM) INHIBITOR AND A HEPATOCYTE GROWTH FACTOR RECEPTOR (HGFR) INHIBITOR” (ACADEMIA SINICA, priority 2021, published 2025)

Tests used:
HCT116 cells [1] = assay: Transwell migration/invasion and wound healing assay, HCT116; assay type: cell-based, human; settings: HCT116; 10 μg/ml EpAb2-6 and 10 μM crizotinib; 24 h; vs control IgG; FIG. 7G
Protocol: FIGS. 3A to 3H. EpEX induces the activation of ERK and FAK-AKT signaling pathway. Wild type (WT) or EpCAM knockout (KO) HCT116 cells after EpEX-His treatment. (FIG. 3A) The levels of phosphorylated HGFR, AKT, FAK, GSK3β, ERK, ADAM17, and presenilin 2 were assayed by Western blotting. (FIG. 3B) Colony formation was examined by crystal violet staining. (FIG. 3C) HCT116 cells were treated with TAPI (ADAM17 inhibitor) or DAPT (γ-secretase inhibitor) for 24 hours, and the phosphorylation of HGFR, AKT, and ERK was analyzed by Western blotting, and EpEX protein level in culture medium was examined by immunoprecipitation and Western blotting. (FIG. 3D) HCT116 and HT29 cells were starved for 16 h, then treated with EpEX-His (50 nM) and HGF (0.5 nM) for 15 min. The levels of phosphorylated HGFR, AKT, and ERK were examined by Western blotting. (FIG. 3E) HCT116 cells were starved for 16 h, then treated with 50 nM EpEX-His for 15 min. HGFR inhibitor SU11274 (SU, 10 μM), AKT inhibitor LY294002 (LY, 25 μM), ERK inhibitor U0126 (U0, 20 μM), or FAK inhibitor PF-562271 (PF, 10 μM) were applied 1 h before EpEX treatment. Phosphorylation of AKT, ERK, and FAK was examined by Western blotting. (FIG. 3F) HCT116 cells were starved for 16 h, then treated with 50 nM EpEX, and SU (10 μM), LY (25 μM), U0 (20 μM) or PF (10 μM). Colony formation was examined by crystal violet staining after treatment for 7 days. The relative colony densities are shown. Migration ability was examined by the (FIG. 3G) wound healing assay at the indicated times. (FIG. 3H) The numbers of migration cell was assessed by a Transwell after treatment for 24 h.
FIGS. 4A to 4L. EpEX induces EMT and invasion by stabilizing β-catenin and Snail through decreasing GSK3β activity. (FIG. 4A) The protein expression of EMT markers and regulators was detected by Western blotting in Wild-type (WT) or EpCAM knockout (KO) HCT116 cells after EpEX treatment. (FIG. 4B) Cell invasion was examined by Transwell chamber assay with matrigel. (FIG. 4C) WT or KO HCT116 and HT29 cells were starved for 16 h, then treated with 0.5 nM of HGF with 2% FBS for 24 h. EMT-related protein expression (E-cadherin, vimentin, and Snail) was examined by Western blotting. (FIG. 4D) WT or KO HCT116 and HT29 cells were treated with HGF (0.5 nM) for 24 h. Invasion by HCT116 and HT29 cells was examined by Transwell chamber assay with matrigel. (FIG. 4E) HCT116 and HT29 cells were starved for 16 h, then treated with 0.5 nM of HGF with 2% FBS for 24 h. EMT-related protein expression (E-cadherin, Vimentin, and Snail) was examined by Western blotting. (FIG. 4F) HCT116 and HT29 cells were starved for 16 h, then treated with 0.5 nM of HGF with 2% FBS for 24 h. Cell invasion was assessed by a Transwell assay with matrigel. (FIG. 4G) HCT116 cells after shLuc and shHGFR treatment were treated with 50 nM of EpEX-His. HCT116 cells after shLuc and shHGFR treatment were treated with 50 nM of EpEX-His with 2% FBS for 24 h. EMT-related protein expression (E-cadherin, Vimentin, and Snail) was examined by Western blotting. (FIG. 4H) Cell invasion was examined by Transwell chamber assay with matrigel. (FIG. 4I) Starved HCT116 cells were treated SU (10 μM) for 1 h, followed by treatment with EpEX-His (50 nM) for 24 h. Phosphorylated GSK3β, active-β-catenin, and Snail were detected by Western blotting. (FIG. 4J) HCT116 cells were starved for 16 h, then treated with 50 nM EpEX-His for 24 min. AKT inhibitor LY294002 (25 μM), ERK inhibitor U0126 (20 μM), or PF-562271 (10 μM) were applied 1 h before EpEX treatment. Protein expression of phosphorylated GSK3β and Snail was examined by Western blotting. (FIG. 4K) HCT116 cells were starved for 16 h, then treated with 50 nM EpEX, and SU (10 μM), LY (25 μM), UO (20 μM) or PF (10 μM). Cell invasion was examined by Transwell chamber assay with matrigel. (FIG. 4L) Protein expression was analyzed by Western blotting in EpEX-His (50 nM) treated HCT116 cells after treatment with or without 2 μM GSK3β inhibitor (BIO) for 24 h. […]

HT29 cells [2] = assay: Transwell invasion assay with matrigel, HT29; assay type: cell-based, human; settings: 10 μg/ml EpAb2-6 and 10 μM crizotinib, 24 h, vs control IgG, FIG. 7G
Protocol: Cell migration and invasion were assayed with 8-μm pore size Transwell migration chambers (Millicell) without or with 10% matrigel. Cells (1×10^5) were added to the upper chamber in 500 μl serum-free DMEM. Then, 700 μl DMEM containing 10% FBS was added to the lower chamber as a chemoattractant. Migration and invasion were allowed to proceed for 16 h at 37° C. in a standard cell culture incubator. Then, cells were removed from the upper surface of the membranes with cotton swabs, and the cells that had migrated to the lower surface were stained with 0.05% (w/v) crystal violet in 4% paraformaldehyde (in 1×PBS) for 15 min and washed with water. Membranes were dried for 15-20 min before at least four random fields on the membrane examined at high power were counted for each experimental condition.

HCT116 cells [3] = assay: Apoptosis assay, annexin V-FITC/PI double labeling, HCT116; assay type: cell-based, human
Protocol: (§1) FIGS. 7A to 7G. EpAb2-6 binds EpEX and induces apoptosis by F(ab′)2 and inhibits regulated intramembrane proteolysis (RIP) activation and HGFR signaling. (FIG. 7A) Binding affinity of IgG EpAb2-6 (mouse) and F(ab′)2 to EpEX-His (1 μg/ml) coated overnight was checked using ELISA (OD450). (FIG. 7B) HCT116 cells were treated with 100 μg/ml control IgG, Fc, or F(ab′)2 of EpAb2-6 for 24 h. The apoptotic and necrotic cells were quantified by fluorescein annexin V-FITC/PI double labeling. (FIG. 7C) HCT116 and HT29 cells were treated with 10 μg/ml control IgG, MT201, humanized EpAb2-6 (hEpAb2-6) or mouse hybridoma EbAb2-6 (mEpAb2-6) for 24 h. The apoptotic and necrotic cells were quantified by fluorescein annexin V-FITC/PI double labeling. (FIG. 7D) HCT116 cells were treated with 10 μg/ml control IgG, MT201, hEpAb2-6 or mEpAb2-6 for 16 h, followed by treatment with EpEX-His (50 nM) for 15 min. Levels of phosphorylated HGFR, AKT, and ERK, and (FIG. 7E) RIP proteins ADAM17 and presenilin 2 were examined by Western blotting. Anti-EpCAM antibody and crizotinib coordinately induces apoptosis in colon cancer cells. (FIG. 7F) HCT116 and HT29 cells were treated with 10 μg/ml NMIgG or EpAb2-6 and 4 μM HGFR inhibitor crizotinib for 24 h. The apoptotic and necrotic cells were quantified by fluorescein annexin V-FITC/PI double labeling. (FIG. 7G) HCT116 and HT29 cells were treated with 10 μg/ml NMIgG or EpAb2-6 and 10 μM HGFR inhibitor crizotinib. Cell invasion was assessed by a Transwell assay with matrigel after 24 h.
(§2) Cells were seeded and treated with 10 μg/ml mAb or inhibitor for 6 h; an unrelated mouse myeloma immunoglobulin used at appropriate dilution served as the IgG2a (Invitrogen #02-6200) isotype control. Apoptotic cells were detected using Annexin V-FITC and PI, and were analyzed using a flow cytometer (BD Immmunocytometry Systems). Early apoptosis was measured with the Annexin V-FITC Apoptosis Detection kit II (BD Pharmingen). Late apoptotic nuclei were detected with propidium iodide (PI) staining.

HT29 cells [4] = assay: Apoptosis assay, annexin V-FITC/PI double labeling, HT29; assay type: cell-based, human; settings: 10 μg/ml EpAb2-6 and 4 μM crizotinib 24 h, FIG. 7F
Protocol: as §1, §2

HCT116 or HT29 = assay: Metastatic and orthotopic animal models of colon cancer, overall statements
Protocol: Colon cancer HCT116 or HT29 (5×10^6 cells/mouse) in PBS were injected into 4-6-week-old female NOD/SCID mice through the tail vein. Mice were then randomly assigned to different treatment groups by body weight. After 3 days, antibodies were administered through tail vein injection twice a week for four consecutive weeks. Crizotinib was administered daily by oral gavage for 5 days per week (treatment for four weeks). For the therapeutic study, tumor-bearing mice were treated with isotype control IgG1 (15 mg/kg), crizotinib (20 mg/kg), EpAb2-6 (15 mg/kg), or crizotinib (20 mg/kg) combined with EpAb2-6 (15 mg/kg). Mouse survival rate were measured.
Orthotopic tumor models were created as previously reported (Chen et al., 2020). Briefly, NSCID mice were used for orthotopic implantation of HCT116 cells previously infected with Lenti-luc virus (lentivirus containing luciferase gene). The mice were anesthetized by i.p. injection ofAvertin, 2,2,2-Tribromo-ethanol (Sigma-Aldrich) at a dose of 250 mg/kg. Tumor development was monitored by bioluminescence imaging. For the therapeutic study, tumor-bearing mice were treated with isotype control IgG1 (15 mg/kg), crizotinib (20 mg/kg), EpAb2-6 (15 mg/kg), or crizotinib (20 mg/kg) combined with EpAb2-6 (15 mg/kg). Tumor progression was monitored by quantification of bioluminescence. Mouse survival was also monitored.

C[C@@H](Oc1cc(-c2cnn(C3CCNCC3)c2)cnc1N)c1c(Cl)ccc(F)c1Cl [crizotinib, 3-[(1R)-1-(2,6-dichloro-3-fluorophenyl)ethoxy]-5-(1-piperidin-4-ylpyrazol-4-yl)pyridin-2-amine]
effect of crizotinib on the inhibitory effect of EpAb2-6 on invasion (HCT116 cells [1]): enhanced the inhibitory effect of EpAb2-6 on invasion
effect of crizotinib on the inhibitory effect of EpAb2-6 on invasion (HT29 cells [2]): enhanced the inhibitory effect of EpAb2-6 on invasion
effect of crizotinib on the apoptotic effects of EpAb2-6 (HCT116 cells [3]; 10 μg/ml EpAb2-6 and 4 μM crizotinib 24 h, FIG. 7F): enhance the apoptotic effects of EpAb2-6
sensitization of HCT116 cells to antibody-induced apoptosis after crizotinib treatment (HCT116 cells [3]; discussion statement): sensitized to humanized-EpAb2-6- and EpAb2-6-induced apoptosis
effect of crizotinib on the apoptotic effects of EpAb2-6 (HT29 cells [4]): enhance the apoptotic effects of EpAb2-6
survival (HCT116 or HT29): poor survival
tumor progression (HCT116 or HT29): developed significant tumors
